In patent US12448369B2 (Edgewise Therapeutics, Inc., priority 2023, dated 2025):

Legend:
[1] = tested on: Porcine atria myofibrils (atrial myosin ATPase); assay: Myofibril ATPase assay, porcine atria myofibrils; assay type: biochemical
Summary of the method: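 Coupled PK-LDH reaction links ADP from myosin ATPase to NADH loss, read at 340 nm every 1.5-2 min for 75 min. Slopes (mAU/min) normalized to vehicle-only wells (100%) and fit to a 4-parameter logistic; Y75 is the concentration cutting activity by 25%, Y125 is reported for activators.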

[2] = molecular target: T1, Porcine ventricle myofibrils (ventricular myosin ATPase) (Sus scrofa, UniProt P79293); assay: Myofibril ATPase assay, porcine ventricle myofibrils; assay type: biochemical, porcine (Yucatan minipigs)
T1 construct: Myofibrils from porcine cardiac muscle was isolated from the left ventricle of Yucatan minipigs; tissue Exemplar Genetics; host or cells: left ventricle of Yucatan minipigs, myofibrils prepared in house
T1 sequence (P79293 whole entry): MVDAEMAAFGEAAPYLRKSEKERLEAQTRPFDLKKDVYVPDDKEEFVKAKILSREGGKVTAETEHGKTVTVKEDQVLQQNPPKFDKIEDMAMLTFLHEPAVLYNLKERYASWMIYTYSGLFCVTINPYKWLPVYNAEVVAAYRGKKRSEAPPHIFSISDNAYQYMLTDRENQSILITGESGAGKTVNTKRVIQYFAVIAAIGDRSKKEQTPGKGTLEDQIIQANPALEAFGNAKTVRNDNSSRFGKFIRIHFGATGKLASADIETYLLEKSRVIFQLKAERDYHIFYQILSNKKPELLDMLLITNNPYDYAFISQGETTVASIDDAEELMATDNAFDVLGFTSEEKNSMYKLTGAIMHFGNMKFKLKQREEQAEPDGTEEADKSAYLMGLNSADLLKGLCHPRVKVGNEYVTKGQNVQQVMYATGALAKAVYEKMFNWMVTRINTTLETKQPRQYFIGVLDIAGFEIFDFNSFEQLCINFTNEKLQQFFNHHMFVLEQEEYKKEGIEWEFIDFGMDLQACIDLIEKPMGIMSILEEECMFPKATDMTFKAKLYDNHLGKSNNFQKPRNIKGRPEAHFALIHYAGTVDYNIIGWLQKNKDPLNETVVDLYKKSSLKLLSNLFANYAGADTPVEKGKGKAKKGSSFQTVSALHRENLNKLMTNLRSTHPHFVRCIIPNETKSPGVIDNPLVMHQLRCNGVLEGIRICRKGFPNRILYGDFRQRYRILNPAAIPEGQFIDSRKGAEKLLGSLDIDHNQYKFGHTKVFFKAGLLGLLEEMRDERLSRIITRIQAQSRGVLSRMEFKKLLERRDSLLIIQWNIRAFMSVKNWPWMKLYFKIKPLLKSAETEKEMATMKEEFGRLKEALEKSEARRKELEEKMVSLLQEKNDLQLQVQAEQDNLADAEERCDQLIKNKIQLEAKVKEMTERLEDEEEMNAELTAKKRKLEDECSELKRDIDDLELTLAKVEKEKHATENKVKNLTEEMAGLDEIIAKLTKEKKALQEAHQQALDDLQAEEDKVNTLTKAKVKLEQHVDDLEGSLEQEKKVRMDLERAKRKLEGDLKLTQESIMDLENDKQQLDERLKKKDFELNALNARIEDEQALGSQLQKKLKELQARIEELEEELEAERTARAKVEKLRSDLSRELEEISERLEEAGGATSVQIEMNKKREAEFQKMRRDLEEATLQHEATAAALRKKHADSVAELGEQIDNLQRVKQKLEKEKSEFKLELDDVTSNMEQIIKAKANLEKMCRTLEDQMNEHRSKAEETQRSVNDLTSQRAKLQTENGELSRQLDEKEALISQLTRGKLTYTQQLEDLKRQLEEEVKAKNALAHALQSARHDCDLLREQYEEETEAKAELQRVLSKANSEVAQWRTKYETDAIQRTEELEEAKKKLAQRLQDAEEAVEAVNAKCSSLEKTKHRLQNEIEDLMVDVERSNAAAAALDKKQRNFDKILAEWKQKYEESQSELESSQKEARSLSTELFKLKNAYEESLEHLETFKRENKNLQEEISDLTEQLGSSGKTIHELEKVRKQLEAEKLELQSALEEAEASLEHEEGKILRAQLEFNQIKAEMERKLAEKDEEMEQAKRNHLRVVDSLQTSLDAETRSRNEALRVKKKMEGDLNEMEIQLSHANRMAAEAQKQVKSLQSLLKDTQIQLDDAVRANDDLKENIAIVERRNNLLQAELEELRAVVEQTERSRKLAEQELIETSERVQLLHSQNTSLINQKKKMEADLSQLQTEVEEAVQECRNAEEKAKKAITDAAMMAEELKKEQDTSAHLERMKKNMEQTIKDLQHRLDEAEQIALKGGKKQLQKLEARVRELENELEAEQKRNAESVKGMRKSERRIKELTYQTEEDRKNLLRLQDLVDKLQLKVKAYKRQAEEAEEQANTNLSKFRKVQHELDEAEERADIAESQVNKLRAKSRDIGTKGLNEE
Summary of the method: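 In a coupled enzyme format, ADP from myofibril ATPase drives NADH oxidation, monitored kinetically at 340 nm for 75 min using minipig ventricle myofibrils. Effective concentrations giving 25% loss or gain of activity relative to vehicle were calculated from 4-parameter fits.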

[3] = tested on: Rabbit Psoas myofibrils (skeletal myosin ATPase); assay: Myofibril ATPase assay, rabbit psoas (skeletal) myofibrils; assay type: biochemical
Summary of the method: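 Rabbit psoas skeletal myofibrils in PIPES/CaCl2/EGTA pCa buffer, pH 7.0. ATPase rate followed by PK-LDH-coupled NADH loss at 340 nm, read every 1.5–2 min for 75 min. Slopes normalized to vehicle (100%) and fitted to a 4-parameter logistic; values are Y75 (25% inhibition) or Y125 (25% activation) concentrations.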

[4] = Y75 value (no ‡ mark), porcine atria myofibrils
[5] = Y75 value (no ‡ mark), porcine ventricle myofibrils
[6] = Y75 value (no ‡ mark), rabbit psoas myofibrils
[7] = ‡ Y125 value, not a Y75 value (125% activity relative to no compound), rabbit psoas myofibrils
[8] = porcine atria myofibrils, Y75 value (75% activity relative to no compound)
[9] = porcine ventricle myofibrils, Y75 value
[10] = rabbit psoas myofibrils, Y75 value

Row | SMILES | Atrial EC25 [1, 4] [nM] | Ventricular EC25 [2, 5] [nM] | Skeletal EC25 [3, 6] [µM] | Atrial EC25 [1, 8] [nM] | Ventricular EC25 [2, 9] [nM] | Skeletal EC25 [3, 10] [µM] | other results
1 | Cc1c(CC(=O)N[C@@H](C)c2ccc(F)cc2F)c(=O)[nH]c2ccc(O)c(C#N)c12 [compound 84] | 2520 | 55560 | 7.24 | – | – | – | –
2 | Cc1c(F)ccc2[nH]c(=O)c(C(F)(F)C(=O)N[C@@H](C)c3ncc(C#N)cn3)c(C#N)c12 (single isomer, unassigned) [compound 2512] | 1530 | 33470 | – | – | – | – | Skeletal EC25 [3, 7]: 100.00‡ μM
3 | O=C(Cc1cc2cc(F)ccc2[nH]c1=O)N1CC[C@@H]2C[C@H]1c1ccccc12 (single isomer, unassigned) [compound 4503] | 11520 | 2980 | 1.29 | – | – | – | –
4 | C[C@H](NC(=O)Cc1cc2c(F)c(F)ccc2[nH]c1=O)c1nc(C#N)cs1 (single isomer, unassigned) [compound 4008] | – | – | – | – | – | – | Atrial EC25 ([1]; Y75 value: concentration required to reduce myosin ATP-ase activity by 25%, Porcine Atria Prep pCa 25 GEOM_MEAN): 2240 nM; Ventricular EC25 ([2]; Y75 value: concentration required to reduce myosin ATP-ase activity by 25%, Porcine Ventricle Prep pCa 25 GEOM_MEAN): 2080 nM; Skeletal EC25 ([3]; Y75 value: concentration required to reduce myosin ATP-ase activity by 25%, Rabbit Psoas Prep pCa 25 GEOM_MEAN): 4.42 µM
5 | C[C@H](NC(=O)[C@@H](C)c1cc2c(C3CC3)nccc2[nH]c1=O)c1ccc(F)cc1F (single isomer, unassigned) [compound 356] | – | – | – | 100000 | 100000 | 157.50 | –
6 | Cc1c(F)ccc2[nH]c(=O)c(C(F)(F)C(=O)N[C@H](C)c3ncc(C#N)cc3F)c(C#N)c12 (single isomer, unassigned) [compound 2519] | 310 | 1190 | 0.52 | – | – | – | –
7 | Cc1c(CC(=O)N[C@@H](C)c2ccc(C#N)nn2)c(=O)[nH]c2cccc(C#N)c12 [compound 1039] | 220 | 670 | 0.08 | – | – | – | –
8 | C[C@H](NC(=O)[C@H](C)c1cc2c(F)nccc2[nH]c1=O)c1ccc(F)cc1F (single isomer, unassigned) [compound 368] | – | – | – | 1660 | 43640 | 0.43 | –
9 | Cc1nccc2[nH]c(=O)c(CC(=O)N[C@@H](C)c3ccc(O)cc3)c(C)c12 (single isomer, unassigned) [compound 329] | – | – | – | 100000 | 100000 | 100.00 | –
10 | C[C@H](NC(=O)C(F)(F)c1cc2cc(F)ccc2[nH]c1=O)c1nccc(C#N)n1 (single isomer, unassigned) [compound 2560] | 100000 | 100000 | – | – | – | – | Skeletal EC25 [3, 7]: 61.98‡ μM
11 | C[C@H](NC(=O)Cc1cc2c(C#N)nccc2[nH]c1=O)c1ccc(C#N)cn1 [compound 473] | – | – | – | 1440 | 6630 | 0.30 | –
12 | Cc1cc(F)cnc1[C@H](C)NC(=O)C1(c2cc3c(F)c(F)ccc3[nH]c2=O)CC1 (single isomer, unassigned) [compound 4806] | 710 | 33850 | 2.39 | – | – | – | –
13 | C[C@H](NC(=O)Cc1c(C(F)(F)F)c2c(C3CC3)nccc2[nH]c1=O)c1ccc(C#N)nn1 (single isomer, unassigned) [compound 3004] | – | – | – | 10040 | 100000 | 5.99 | –
14 | Cc1c(CC(=O)N[C@H](C)c2ncc(C#N)cc2F)c(=O)[nH]c2ccnc(C(F)(F)F)c12 (single isomer, unassigned) [compound 226] | – | – | – | 7580 | 100000 | 0.27 | –
15 | CCNc1nccc2[nH]c(=O)c(CC(=O)N[C@@H](C)c3ccc(F)cc3F)c(C)c12 [compound 351] | – | – | – | 140 | 970 | 0.06 | –
16 | C[C@H](NC(=O)Cc1cc2c(C3CC3)nccc2[nH]c1=O)c1ccc(F)cc1F [compound 432] | – | – | – | 16070 | 80530 | 0.47 | –
17 | C[C@@H](NC(=O)Cc1cc2cc(F)ccc2[nH]c1=O)c1ccc(C#N)cn1 [compound 1125] | 18280 | 100000 | 100.00 | – | – | – | –
18 | Cc1c([C@H](C)C(=O)N[C@@H](C)c2ccc(F)cc2F)c(=O)[nH]c2ccnc(F)c12 (single isomer, unassigned) [compound 375] | – | – | – | 270 | 4580 | 0.17 | –

Row | SMILES | Atrial EC25 [1, 4] [nM] | Ventricular EC25 [2, 5] [nM] | Skeletal EC25 [3, 6] [µM] | Atrial EC25 [1, 8] [nM] | Ventricular EC25 [2, 9] [nM] | Skeletal EC25 [3, 10] [µM] | other results
19 | C[C@@H](NC(=O)Cc1c(C2CC2)c2c(F)c(F)ccc2[nH]c1=O)c1ccc(C#N)cn1 [compound 25] | 100000 | 100000 | 1.68 | – | – | – | –
20 | Cc1c(CC(=O)N[C@@H](CO)c2ccc(F)cc2F)c(=O)[nH]c2ccnc(OC3CC3)c12 [compound 200] | – | – | – | 3030 | 100000 | 0.19 | –
21 | Cc1c(C2(C(=O)N[C@H]3CCc4cc(C#N)cnc43)CC2)c(=O)[nH]c2ccc(F)cc12 (single isomer, unassigned) [compound 2504] | 100000 | 100000 | 100.00 | – | – | – | –
22 | Cc1c(C(F)(F)C(=O)N[C@H](C)c2ncc(C#N)cn2)c(=O)[nH]c2ccc(F)c(C(F)(F)F)c12 (single isomer, unassigned) [Compound 2513] | 430 | 1620 | 0.34 | – | – | – | –
23 | C[C@@H](NC(=O)Cc1c(C2CC2)c2cc(F)ccc2[nH]c1=O)c1ccc(C#N)cn1 [compound 55] | 1290 | 100000 | 1.20 | – | – | – | –
24 | Cc1c(CC(=O)N[C@@H](C)c2ncc(C#N)cn2)c(=O)[nH]c2ccc(F)c(C#N)c12 (single isomer, unassigned) [compound 2016] | 120 | 290 | 0.05 | – | – | – | –
25 | Cc1c(C(F)(F)C(=O)N[C@@H](C)c2ccc(C#N)nn2)c(=O)[nH]c2ccc(F)cc12 (single isomer, unassigned) [compound 2556] | 6560 | 16010 | 5.17 | – | – | – | –
26 | Cc1c(C2(C(=O)N[C@H]3CCc4cc(C#N)cnc43)CC2)c(=O)[nH]c2ccc(F)c(F)c12 (single isomer, unassigned) [compound 4804] | 4710 | 100000 | 100.00 | – | – | – | –
27 | Cc1c(CC(=O)N[C@H](C)c2ccc(C#N)cc2F)c(=O)[nH]c2ccnc(C(F)(F)F)c12 [compound 161] | – | – | – | 340 | 1190 | 0.11 | –
28 | Cc1nccc2[nH]c(=O)c(CC(=O)N[C@H](C)c3cccc(O)c3)c(C)c12 (single isomer, unassigned) [compound 330] | – | – | – | 100000 | 100000 | 100.00 | –
29 | Cc1c([C@@H](C)C(=O)N[C@@H](C)c2ccc(F)cc2F)c(=O)[nH]c2ccc(C(F)(F)F)nc12 (single isomer, unassigned) [compound 370] | – | – | – | 60 | 48160 | 0.51 | –
30 | Cc1nccc2[nH]c(=O)c(CC(=O)N[C@@H](CO)c3ncc(C#N)cc3F)c(C)c12 (single isomer, unassigned) [compound 248] | – | – | – | 860 | 3010 | 0.17 | –
31 | Cc1ccccc1[C@H](C)NC(=O)Cc1c(C)c2c(C)nccc2[nH]c1=O (single isomer, unassigned) [compound 327] | – | – | – | 3290 | 9240 | 0.67 | –
32 | Cc1c(CC(=O)N[C@@H](C)c2ccc(F)cc2F)c(=O)[nH]c2ccc(Br)nc12 [compound 357] | – | – | – | 60 | 310 | 0.06 | –
33 | Cc1nc([C@H](C)NC(=O)Cc2c(C)c3c(C)nccc3[nH]c2=O)ncc1C#N [compound 479] | – | – | – | 100000 | 100000 | 100.00 | –
34 | Cc1nc(C#N)cnc1[C@@H](C)NC(=O)Cc1c(C)c2cc(F)ccc2[nH]c1=O [compound 1068] | 70 | 60 | 0.12 | – | – | – | –
35 | CC[C@H](NC(=O)Cc1c(C)c2c(C)c(F)ccc2[nH]c1=O)c1ncc(C#N)cn1 (single isomer, unassigned) [compound 4834] | 490 | 640 | 0.15 | – | – | – | –
36 | COc1nccc2[nH]c(=O)c(CC(=O)N[C@@H](C)c3ncc(C#N)cc3F)c(C(F)(F)F)c12 (single isomer, unassigned) [compound 3010] | – | – | – | 700 | 3570 | 0.63 | –
